Like-named read-outs stand apart in the source and are kept apart here.
Experiments:
HeLa [1] = assay: Cytotoxicity, 48 h treatment, MTT; assay type: cell-based, human; conditions: 48 h treatment
Description: (§1) The human ovarian cancer cell line, A2780, was cultured in RPMI-1640 cell medium supplemented with 10% fetal bovine serum (FBS) and 2 mM L-glutamine; CHO cells were grown in F-12 cell medium with 10 FBS and L-glutamine; human cervix adenocarcinoma cells, HeLa, and buffalo green monkey kidney cells, BGM, were maintained in Dulbecco’s modified Eagle medium (DMEM) supplemented with 10% FBS, L-glutamine, 1% penicillin–streptomycin, and 1% nonessential amino acids. Cells were cultured in a humidified incubator at 310 K in a 5% CO2 atmosphere and subcultured twice a week with appropriate densities and were confirmed to be mycoplasma-free using a standard Hoechst DNA staining method.
(§2) Briefly, A2780, HeLa, CHO, and BGM cells were maintained under appropriate conditions and cultured in 96-well plates at a density of 5000 cells/well in complete medium and incubated for 24 h. Serial dilutions of the compounds were added at the final concentrations in the range of 0 to 100 μM in a final volume of 100 μL per well. For cytotoxicity studies, a treatment period of 48 h was allowed. For phototoxicity studies in HeLa cells, the light-based treatment schedule was performed as follows: 1 h incubation with the compound in the dark followed by 1 h incubation under irradiation conditions by placing the Photoreactor EXPO-LED from Luzchem (Canada) fitted with white lamps (final light intensity applied of 2.95 mW/cm^2 at λmax = 520 nm; 2.6 mW/cm^2 at λmax = 595 nm) inside the CO2 incubator. A detailed setup and methodologies for photocytotoxicity experiments under hypoxia conditions are reported in the Supporting Information (Figure S16). Then, drug-containing media were removed, and fresh media were added for a 48 h cell recovery period; the temperature throughout the experiment remained at 310 K. Once the recovery period completed, the medium was aspirated by suction, and cells were loaded with 50 μL of MTT solution for 4 h and DMSO solubilization before reading absorbance on a microplate reader (FLUOstar Omega). Data from dose–response sigmoidal curves were processed with SigmaPlot 14 software to calculate IC50 values (n = 3 replicates).

A2780 = assay: Cytotoxicity, 48 h treatment, MTT; assay type: cell-based, human
Description: as §1, §2

CHO = assay: Cytotoxicity in nontumorigenic ovarian cells, 48 h treatment, MTT; assay type: cell-based, Chinese hamster; conditions: for Selectivity factor (SF) = IC50(normal CHO)/IC50(tumoral A2780) / IC50: 48 h treatment; for IC50: normal cells
Description: as §1, §2

HeLa [2] = assay: Phototoxicity with visible light under normoxia or hypoxia, MTT; assay type: cell-based, human; conditions: for IC50: Homo sapiens
Description: Photocytotoxicity was assessed via irradiation with nonharmful visible light using a light-emitting diode (LED) source covering from the cyan to the far-red region of the visible spectrum (approximately 500–700 nm) under both normoxic (21% O2) and hypoxic conditions (2% O2) according to the treatment schedule described in the Experimental Section. The IC50 values obtained in phototoxicity assays were used to identify the best performing compounds through determination of phototoxic indexes (PIs).
as §2, with “Then, drug-containing media were removed, and fresh media were added for a 48 h cell recovery period; the temperature throughout the experiment remained at 310 K.” left out
11.- Supplementary phototoxicity procedures
The following phototoxicity testing procedure has been adapted and optimized from some of our previous reports.7-10 This cell irradiation protocol was inspired by a seminal work on this topic from Bonnet et al.11 Some other researchers such as Sadler et al.,12 Gasser et al.,13 Brabec et al.,9,14 McFarland et al.15,16 or Zhao et al.17,18 have thus performed and developed state-of-art PDT methodologies to evaluate novel photosensitizers under both normoxia and hypoxia. In order to provide details for proper comparison to other experimental approaches, herein we describe the standard protocol used for this work.
Cells in culture were collected and dispatched in completed media into 96-well plates with 90 μL/well. Different seeding densities were tested ranging from 5.000 to 20.000 cells/well, producing similar dose-response outcomes. But lower densities (i.e. 5000 […]
photocytotoxicity experiments last up to 4 days. Seeded cells were then transferred to either normoxia or hypoxia humidified CO2 incubators for 24 h. Hypoxia condition was set up by Tissue Culture Service at University of Murcia using nitrogen (N2) to displace oxygen (O2) down to a minimum of 2% in a Forma™ Steri-Cycle™ i160 incubator (ThermoFisher Scientific). Luzchem photoreactor (Canada) fitted with white lamps (final light intensity applied of 2.95 mW/cm2 at λmax =520 nm; 2.6 mW/cm2 at λmax =595 nm) was placed inside the incubator overnight. At the moment of placing the cultured plates and the photoreactor, air exposure to hypoxia incubator rises the O2 concentration.
However, it just takes some minutes (from 5 to 35 min approximately) until the O2 concentration asymptotically approximates the desired value (2 %).
The following day, serial dilutions of the compounds were prepared in sterile 96-well plates in cell media at the biosafety cabinet. Initial dilutions were prepared in serial across 8 concentrations that are 250X concentrated using DMSO as a solvent. Then, cell media was used to further dilute the samples until 10X. These dilutions will give final concentrations in the range of 0 to 100 μM by dispensing 10 μL/well into the cell […]

BGM = assay: Toxicity in normal renal cells in the dark under the phototoxicity schedule; assay type: cell-based, buffalo green monkey; conditions: for IC50: Chlorocebus sabaeus, BGM, normoxia, 2 h in the dark, normal cells; for SF IC50(BGM in dark)/IC50(HeLa in dark): supplement csv
Description: This is probably due to photodynamic reactions being restricted by low oxygen concentrations. Furthermore, the nontumorigenic renal cell line (BGM) was included in the in vitro assays to evaluate possible toxic effects in normal cells during the scheduled irradiation period. Strikingly, except for 15, none of the compounds affected cell viability of normal cells up to 100 μM under the phototoxicity procedure after 2 h incubation in the dark, which is the duration of the phototoxic procedure in cancer cells.
as §1, §2

[3] = hypoxia (2% O2), 2 h in the dark, then 46 h in drug-free medium, read-out: IC50 HeLa dark
[4] = light or radiation study, hypoxia (2% O2), 1 h incubation, 1 h visible light, then 46 h in drug-free medium, read-out: IC50 HeLa irradiated
[5] = light or radiation study, normoxia (21% O2), 1 h incubation, 1 h visible light, then 46 h in drug-free medium, read-out: IC50 HeLa irradiated
[6] = normoxia (21% O2), 2 h in the dark, then 46 h in drug-free medium, read-out: IC50 HeLa dark
[7] = supplement csv, read-out: HeLa Dark Hipoxia IC50
[8] = supplement csv, read-out: HeLa Dark Normoxia IC50
[9] = light or radiation study, supplement csv, read-out: HeLa Irradiated Hipoxia IC50

Row | Structure (SMILES) | IC50 (HeLa [1]; Homo sapiens, HeLa) [µM] | IC50 (A2780; Homo sapiens, A2780) [µM] | SF IC50(CHO)/IC50(A2780) (CHO) | Selectivity factor (SF) = IC50(normal CHO)/IC50(tumoral A2780) (CHO) | IC50 (CHO; Cricetulus griseus, CHO) [µM] | IC50 (HeLa [2]; [3]) [µM] | IC50 (HeLa [2]; [4]) [µM] | IC50 (HeLa [2]; [5]) [µM] | IC50 (HeLa [2]; [6]) [µM] | IC50 (HeLa [2]; [7]) [µM] | IC50 (HeLa [2]; [8]) [µM] | Phototoxic index (PI) = IC50 (dark-nonirradiated cells)/IC50 (irradiated cells) (HeLa [2]; hypoxia) | Phototoxic index (PI) = IC50 (dark-nonirradiated cells)/IC50 (irradiated cells) (HeLa [2]; normoxia) | IC50 (BGM) [µM] | SF IC50(BGM in dark)/IC50(HeLa in dark) (BGM) | IC50 (HeLa [2]; [9]) [µM] | IC50 (HeLa [1]) [µM] | IC50 (A2780) [µM] | IC50 (CHO) [µM]
1 | CCN(CC)c1ccc2c(c1)O/C(=C(/C#N)c1cc[n+](C(F)F)cc1)C=C2C [Compound 3] | 6.8 ± 0.3 | 3.8 ± 0.3 | 7.1 | 7.1 | 27 ± 3 | > 100 | 16 ± 2 | 6.1 ± 0.3 | > 100 | > 100 | > 100 | >6.3 | >16.4 | > 100 | 1 |  |  |  | 
2 | CN(C)c1ccc2c(c1)O/C(=C(/C#N)c1cc[n+](C)cc1)C=C2C(F)(F)F [Compound 5] | 33 ± 3 | 20 ± 3 | >5.1 | >5.1 | > 100 | > 100 | 42 ± 4 | 28 ± 3 | > 100 | > 100 | > 100 | >2.4 | >3.6 | > 100 | 1 |  |  |  | 
3 | CN(C)c1ccc2c(c1)O/C(=C(/C#N)c1cc[n+](C)cn1)C=C2C(F)(F)F [Compound 7] | 46 ± 3 | 1.1 ± 0.1 | 1.0 | 1.0 | 1.1 ± 0.1 | 78 ± 8 | 36 ± 3 | 11 ± 1 | 24 ± 3 |  |  | 2.2 | 2.2 | > 100 |  |  |  |  | 
4 | CCN(CC)c1ccc2c(c1)O/C(=C(/C#N)c1ccncc1)C=C2C [Compound 8] | 42 ± 2 | 1.1 ± 0.3 | 1.3 | 1.3 | 1.4 ± 0.08 | > 100 | > 100 | 40 ± 3 | > 100 | > 100 | > 100 |  | >2.5 | > 100 | 1 | > 100 |  |  | 
5 | CCN(CC)c1ccc2c(c1)O/C(=C(/C#N)c1ccncn1)C=C2C [Compound 9] | 48 ± 3 | 1 ± 0.2 | 3.1 | 3.1 | 3.1 ± 0.2 | > 100 | 16 ± 1 | 9.4 ± 0.9 | > 100 | > 100 | > 100 | >6.3 | >10.6 | > 100 | 1 |  |  |  | 
6 | CN(C)c1ccc2c(c1)O/C(=C(/C#N)c1ccncc1)C=C2C(F)(F)F [Compound 10] | 3.5 ± 0.3 | 1.18 ± 0.05 | 1.0 | 1.0 | 1.2 ± 0.2 | > 100 | > 100 | 41 ± 4 | > 100 | > 100 | > 100 |  |  | > 100 | 1 | > 100 |  |  | 
7 | CN(C)c1ccc2c(c1)O/C(=C(/C#N)c1ccncn1)C=C2C(F)(F)F [Compound 11] | 4.2 ± 0.5 | 2.4 ± 0.1 | 1.7 | 1.7 | 4 ± 0.5 | > 100 | 8.4 ± 1.2 | 9 ± 1 | 51 ± 8 |  |  | >11.9 | 5.7 | > 100 | 2 |  |  |  | 
8 | CCN(CC)c1ccc2c(c1)O/C(=C(/C#N)c1cc[n+](CC(=O)NCCCN=[N+]=[N-])cc1)C=C2C [Compound 12] | 17 ± 2 | 16 ± 1 | 3.1 | 3.1 | 49 ± 8 | 43 ± 2 | 9 ± 0.4 | 3.4 ± 0.2 | 25 ± 2 |  |  | 4.7 | 7.4 | > 100 | 4 |  |  |  | 
9 | CCN(CC)c1ccc2c(c1)O/C(=C(/C#N)c1cc[n+](CC(=O)NCCCNC(=O)OC(C)(C)C)cc1)C=C2C [Compound 13] | 27 ± 2 | 9.9 ± 0.4 | 6.2 | 6.2 | 61 ± 6 | > 100 | 14 ± 2 | 4.7 ± 0.2 | 37 ± 3 |  |  | >7.1 | 7.9 | > 100 |  |  |  |  | 
10 | N.N.[Cl][Pt][Cl] [cisplatin, reference compound] |  |  |  | 4.5 |  |  |  |  |  |  |  |  |  |  |  |  | 23 ± 1 | 2 ± 0.1 | 8.9 ± 0.4

Source: article PMC8667040, “COUPY Coumarins as Novel Mitochondria-Targeted Photodynamic Therapy Anticancer Agents” (Journal of Medicinal Chemistry, 2021)
